Laboratory results taken from ChEMBL document CHEMBL1158742, “Production of 8-demethylgeldanamycin and 4,5-epoxy-8-demethylgeldanamycin from a recombinant strain of Streptomyces hygroscopicus” (J Nat Prod, 2005).

tested on: SK-BR-3; experiment: Cytotoxicity against human SKBR3 cells after 72 hrs by celltiter-Glo assay; format: functional, cell-based; details: SK-BR-3, 72 h

Row | SMILES | IC50 [nM]
1 | COC1=C2C[C@@H](C)C[C@H](OC)[C@H](O)[C@@H](C)/C=C/[C@H](OC(N)=O)[C@@H](OC)[C@@H]3O[C@@H]3/C=C(\C)C(=O)NC(=CC1=O)C2=O | 280
2 | COC1=C2C[C@@H](C)C[C@H](OC)[C@H](O)[C@@H](C)/C=C/[C@H](OC(N)=O)[C@@H](OC)/C=C\C=C(/C)C(=O)NC(=CC1=O)C2=O | 481
3 | C=CCNC1=C2C[C@@H](C)C[C@H](OC)[C@H](O)[C@@H](C)/C=C(\C)[C@H](OC(N)=O)[C@@H](OC)/C=C\C=C(/C)C(=O)NC(=CC1=O)C2=O [TANESPIMYCIN] | 27
